Values of other authors in patent publication US12201725B2, “Dry powder compositions of treprostinil prodrugs and methods of use thereof” (Insmed Incorporated, priority 2019, dated 2025).
Read-outs that look alike come from different tables or passages of the source.

Columns and labels:
[1] = test system: hypoxia-induced increase in right ventricular pulse pressure (RVPP); conditions: inhaled, comparison, not tested in Example 5
[2] = guinea pigs, comparison, not tested in Example 6

Timing of cough ([2]; nebulized): ≤ 10 min | Threshold dose of inhaled TRE that causes cough [2]: 1.23 µg/kg
SMILES: CCCCC[C@H](O)CC[C@@H]1[C@H]2Cc3cccc(OCC(=O)O)c3C[C@H]2C[C@H]1O [treprostinil]
Duration of inhibition of the hypoxia-induced increase in RVPP ([1]; highest dose 215 μg/kg): 2 h | Duration of inhibition of the hypoxia-induced increase in RVPP ([1]; lower doses 15, 53, or 110 μg/kg): 1 h
